Reference: patent publication US20090291857A1, “METHODS TO IDENTIFY INHIBITORS OF THE UNFOLDED PROTEIN RESPONSE” (THE BOARD OF TRUSTEES OF THE LELAND STANFORD JUNIOR …, priority 2006, published 2009)

How the values were obtained:
XBP-luciferase reporter = test: In vivo bioluminescence imaging of XBP-luciferase tumor xenografts; parameters: species or system mouse
Description: HT1080 fibrosarcoma cells (2×10^6) stably expressing the XBP-luciferase reporter were implanted s.c. into severe combined immune deficient (SCID) mice. Ten minutes prior to imaging, mice were injected i.p. with D-luciferin (150 mg/kg) solubilized in PBS. Optical bioluminescence imaging was performed using the IVIS charged-coupled device camera system (Caliper Life Sciences, Hopkinton, Mass.). Mice were imaged for 1-4 minutes per acquisition scan. Signal intensities were analyzed using Living Image software (Caliper).
A. Irestatin 9389 impairs IREla activity in implanted tumor xenografts. Equal numbers (2×10^6) of XBP-luciferase or CMV-luciferase reporter cells were implanted s.c. into SCID mice. After one week, mice were treated with irestatin 9389 (50 mg/kg), followed by optical bioluminescence imaging. B. Inhibition of tumor growth by irestatin 9389. […] Tumor volumes were calculated based on caliper measurements taken every 3-5 days. Data points represent the mean volume calculated from at least 7 tumors per group, with SEM shown in one direction. […]
The increased sensitivity of irestatin-treated cells to hypoxic stress in vitro indicate that selective inhibition of IRE1α signaling could impact tumor growth. […] In contrast, XBP-1s was not detected in normal pancreas specimens (0/20), and infrequently observed in chronic pancreatitis (1/29) (FIG. 15). […]

HT1080 cells = test: Clonogenic survival / colony formation assay, HT1080; assay type: cell-based, human; details: 2.5 μM
Description: Several of the candidate irestatins were tested in a hypoxia clonogenic survival assay. […] HT1080 fibrosarcoma cells stably were treated with 1 uM of the indicated irestatin or left untreated, and incubated in hypoxia (0.01% oxygen) for 48 hrs at 37° C. Cells were harvested and counted, and allowed to form colonies under normal oxygen tension. Survival rate is expressed as the fraction of colonies formed divided by the total number of cells seeded for each condition. For all experiments, cells were plated in triplicate, and all experiments were repeated at least three times. These experiments were repeated using MiaPaCa2 cells in place of the HT 1080 fibrosarcoma cells.
For hypoxia survival assays, cells were grown in 60 mm dishes until reaching at 50-70% confluence and shifted to hypoxia (0.1% O2) for 48 hrs. Cells were trypsinized, counted using a hemocytometer, and replated in triplicate at 1,000-20,000 cells per plate in normal culture medium. After 10-12 days of growth under normal oxygen conditions, colonies were stained with 0.2% crystal violet in ethanol and counted. Survival values are expressed as the number of colonies divided by the total number of cells seeded for each condition, normalized to the plating efficiency under normal oxygen conditions. […]
A. Effect of irestatin 9389 on PERK and ATF6 pathways. […] D. Quantification of clonogenic survival assay. […]

## Cc1csc(NC(=O)CSc2nc3c(c(C(F)(F)F)c2C#N)CCC3)n1 [Compound 9389]
XBP-luciferase reporter; SCID mice, single doses of 50-60 mg/kg
  duration of robust inhibition of the XBP-luciferase reporter after injection: 6 to 8 h
XBP-luciferase reporter; after treatment
  time at which XBP-luciferase signal returned to basal levels: ≤ 24 h
HT1080 cells; hypoxia 48 hours
  colony formation after hypoxia: strongly inhibited colony formation
HT1080 cells; normal oxygen conditions
  survival of HT1080 cells under normal oxygen: negligible effect
